US4960883A, “Piperazines and homopiperazines” (Kowa Company, Ltd., priority 1988, dated 1990)

Test system: Rabbit PRP, ADP-induced platelet aggregation
Test: Inhibitory effect on ADP-induced platelet aggregation
Type: cell-based
Conditions: ADP (2 μm); for Platelet aggregation inhibitory concentration: concentration at which the inhibition rate (%) in parentheses was found
Description: (B) Inhibitory effect on ADP-induced platelet aggregation
Rabbit PRP (250 μl) was preincubated with drug samples ([…]) of aqueous solution or 1 µl of DMSO solution) at 37° C. for 1 minute, and ADP (2 μm)-induced platelet aggregation was measured by aggregometer (NKK HEMA TRACERl Model PAT-4M). Inhibitory effects of the drugs were estimated from the standard curve of maximal aggregation.

Row | SMILES | Platelet aggregation inhibition rate (%) in the parentheses (at 10^-5 mole/liter) [%] | Platelet aggregation inhibitory concentration | Platelet aggregation inhibition rate (%) in the parentheses (at 10^-4 mole/liter) [%]
1 | COc1ccc(S(=O)(=O)N2CCN(CC(COCC(C)C)N(C)Cc3ccccc3)CC2)cc1OC (stereo not drawn) [Example 1, 1-(3,4-dimethoxybenzenesulfonyl)-4-(3-isobutoxy-2-methylbenzylaminopropyl)-piperazine] | 12 | 10^-5 mole/liter | –
2 | CC(C)COCC(CN1CCCN(S(=O)(=O)c2ccccc2)CC1)N(C)Cc1ccccc1 (stereo not drawn) [Example 2, 1-benzenesulfonyl-4-(3-isobutoxy-2-methylbenzylaminopropyl)homopiperazine] | – | 10^-4 mole/liter | 60
3 | CC(C)COCC(CN1CCN(C(=O)CCO[N+](=O)[O-])CC1)N(C)Cc1ccccc1 (stereo not drawn) [Example 7] | – | 10^-4 mole/liter | 33
4 | CC(C)COCC(CN1CCN(S(=O)(=O)c2cccc3c(Cl)cccc23)CC1)N(C)Cc1ccccc1 (stereo not drawn) [Example 9] | 8 | 10^-5 mole/liter | –
5 | CC(C)COCC(CN1CCN(S(C)(=O)=O)CC1)N(C)Cc1ccccc1 (stereo not drawn) [Example 10] | – | 10^-4 mole/liter | 35
6 | CC(C)COCC(CN1CCN(S(=O)(=O)c2ccccc2)CC1)N(C)Cc1ccccc1 (stereo not drawn) [Example 11] | – | 10^-4 mole/liter | 33
